Experimental data from US20150051192A1, “BLOCKING OF CUE-INDUCED DRUG REINSTATEMENT” (ALBANY MEDICAL COLLEGE, priority 2012, published 2015).
Entries after “also recorded” stand apart in the source; their conditions may differ. Read-outs that look alike come from different tables or passages of the source.

Assays:
study animals [1] = conditions: cited from earlier work
rats [2] = conditions: cited from earlier work
[3] = in vivo, cited from earlier work
study animals [4] = conditions: cited from earlier work; remark: listed apart in the source
rats [5] = conditions: compared to saline treated rats; cited from earlier work
[6] = tested on: female Sprague-Dawley rats; experiment: Musical cue-induced reinstatement of cocaine seeking (Experiment 3); format: in vivo, rat; conditions: 18-MC 40 mg/kg i.p. 20 minutes prior to reinstatement test session, vs saline
From the text: Naïve female Sprague-Dawley rats (Taconic Germantown, N.Y.), weighing approximately 250 g at the start of the experiments, were housed individually in a temperature and humidity controlled colony room under a standard 12:12 light/dark cycle. Food and water were provided ad libitum. Protocols were designed and implemented in accordance with the “Guide for the Care and Use of Laboratory Animals” (1996) and were approved by the Institutional Animal Care and Use Committee of Albany Medical College. Rats were given one week of acclimation prior to experimental procedures.
Cocaine hydrochloride (˜0.4 mg/kg/infusion, Sigma-Aldrich, St. Louis, Mo.) was dissolved in 0.9% sodium chloride with a 2 mg/ml drug to saline ratio, and then brought to a neutral physiological pH before use in intravenous (i.v.) self-administration sessions. 18-MC (40 mg/kg, Obiter Research LLC. Champaign, Ill.) and saline were both administered intraperitoneally (i.p.). Animals were anesthetized with sodium pentobarbital (50 mg/kg, i.p.) for both intrajugular and microdialysis cannulation surgeries. Sodium methohexital (10 mg/kg) was used to verify catheter patency. All other reagents used in conjunction with microdialysis experiments were obtained from local suppliers and were of analytical grade.
Miles Davis' “Four” (Prestige Blue Haze, 1954) was the musical track used as a contextual cue in these experiments. The Miles Davis selection was chosen because it had been used successfully in past conditioning paradigms in our laboratory (Polston et al, 2011b). This musical selection was originally chosen because it has a repetitive beat and melody, helping to make it easily recognizable and identifiable. During drug training, self-administration, and applicable test sessions, “Four” was played on a continuous loop, at a volume staying between 65 and 75 decibels. This decibel range was chosen because it had been used successfully in past investigations involving rats and music (Feduccia et al, 2008; Otsuka et al, 2009; Polston et al, 2011b).
Experiments were conducted in rat operant conditioning chambers (ENV-009, Med Associates, St. Albans, Vt.) located within sound attenuated boxes outfitted with acoustical foam. The operant boxes were continuously ventilated with a house fan, and equipped with two retractable levers spaced approximately 20 cm apart on the front wall, with a house light mounted on the back wall of the test chamber. […] By operationally defining the floor (30.5 cm×31.8 cm) of the test chamber, and dividing it into three spatial zones, the program automatically generated detailed readings of the time spent in each zone in seconds and the distance that the animal traveled in meters. […] Videos were also periodically recorded and analyzed to ensure that Anymaze was functioning correctly. […]

Question: For `COCC[C@H]1CC2CN3CCc4c([nH]c5ccccc45)[C@](C(=O)OC)(C2)[C@H]13` [18-MC, 18-Methoxycoronaridine], which “effect on drug self-administration” value (study animals [1]; 10 μg administered into the interpeduncular nucleus) is on record?
Answer: Its value is “effective”.

Question: What about the “effect on drug self-administration” value (study animals [1]; 10 μg administered into the ventral tegmental area) of the same molecule?
Answer: Its value is “no effect”.

Question: What about the “morphine, methamphetamine, and nicotine self-administration” value (study animals [1]; locally administered into the medial habenula) of the same molecule?
Answer: Its value is “decreased”.

Question: And the “nicotine, cocaine, morphine, methamphetamine, and ethanol self-administration” value (rats [2])?
Answer: Its value is “reduce”.

Question: And the “acquisition of a cocaine conditioned place preference” value [3]?
Answer: Its value is “able to block the acquisition”.

Question: What about the “acquisition of a cocaine conditioned place preference” value ([3]; listed as 18MC) of the same molecule?
Answer: The value was “block acquisition”.

Question: What about the “sensitized dopamine responses in the nucleus accumbens” value (study animals [4]; local administration into both the medial habenula and the interpeduncular nucleus) of the same molecule?
Answer: Its value is “produced similar results”.

Question: What about the “sensitized dopamine responses to both morphine and cocaine in the nucleus accumbens” value (study animals [4]; systemic 18-MC 40 mg/kg pretreatment 19 hours beforehand, chronic dosing models) of the same molecule?
Answer: The value was “abolished”.

Question: What about the locomotor effects alone (rats [5]) of the same molecule?
Answer: The locomotor effects alone was “produces no locomotor effects alone”.

Question: And the “time spent in the inactive or back zones, reinstatement test session” value ([6]; inactive p=0.488, back p=0.082)?
Answer: Its value is “no effect of Treatment”.

Question: And the “active lever responses on the reinstatement test day” value ([6]; musical cue, p<0.001)?
Answer: Its value is “significantly fewer active lever responses; also recorded: significantly attenuated responses”.

Question: What about the “time spent in the active zone, reinstatement test session” value ([6]; p<0.01) of the same molecule?
Answer: Its value is “significant decrease; also recorded: significantly decreased”.

Question: What about the “locomotor activity on the reinstatement test day” value ([6]; p=0.143) of the same molecule?
Answer: The value was “no significant differences between groups; also recorded: produced no changes in locomotor activity”.
